According to patent US8119159B2, “Solid oral dosage form containing an enhancer” (Merrion Research III Limited, priority 1999, dated 2012):
Values belong to the molecule of their own block, whether it stands above or below them.

Legend:
[1] = Closed loop rat model, intraduodenal TRH with enhancer, serum TRH; format: in vivo; conditions: interduodenal bolus 500 or 1000 μg TRH with 35 mg enhancer
Protocol: Male Wistar rats (weight range 250 g-350 g) were anaesthetized with ketamine hydrochloride/acepromazine. […] All intraduodenal dose volumes (for samples and control) were 1 ml/kg. The proximal end of the segment was ligated and the loop was sprayed with isotonic saline (37° C.) to provide moisture and then replaced in the abdominal cavity avoiding distension. The incision was closed with surgical clips. A group of animals were administered TRH in PBS (100 μg in 0.2 ml) by subcutaneous injection as a reference.

Caco-2 monolayers [2] = experiment: 3H-TRH apical to basolateral transport (Papp) across Caco-2 monolayers; format: in vitro ADME; conditions: sodium salts at the concentrations of Table 1
Protocol: (§1) Cell Culture: Caco-2 cells were cultured in Dulbecco's Modified Eagles Medium (DMEM) 4.5 g/L glucose supplemented with 1% (v/v) non-essential amino acids; 10% fetal calf serum and 1% penicillin/streptomycin. […] The cells were grown and expanded in standard tissue culture flasks and were passaged once they attained 100% confluence. The Caco-2 cells were then seeded on polycarbonate filter inserts (Costar; 12 mm diameter, 0.4 μm pore size) at a density of 5×10^5 cells/cm^2 and incubated in six well culture plates with a medium change every second day. Confluent monolayers between day 20 and day 30 seeding on filters and at passages 30-40 were used throughout these studies.
(§2) Transepithelial Transport Studies: The effects of sodium salts of various MCFAs on the transport of ^3H-TRH (apical to basolateral flux) was examined as follows: 15.0 μCi/ml (0.2 μM) ^3H-TRH was added apically at time zero for TRH flux experiments. The transport experiments were performed in Hank's Balanced Salt Solution (HBSS) containing 25 mM N-[2-hydroxyethyl]-piperazine-N′-[2-ethanesulfonic acid] (HEPES) buffer, pH 7.4 at 37° C. Due to variations in solubilities, various concentrations of the different MCFA sodium salts and various apical buffers were used as shown in Table 1. In all cases the basolateral chamber contained regular HBSS+HEPES.
After removing the cell culture medium, the monolayers were placed in wells containing prewarmed HBSS (37° C.); 1 ml apically and 2 ml basolaterally. Monolayers were incubated at 37° C. for 30 mins. Then at time zero, apical HBSS was replaced with the relevant apical test solution containing the radiolabelled compounds with and without the enhancer compound. […] The plates were placed on an orbital shaker in an incubator (37° C.). Transport across the monolayers was followed by basolateral sampling (1 ml) at 30 min. intervals up to 120 mins. […] Apical stock radioactivity was determined by taking 10 μl samples at t=0 and t=120 mins. […] Mean values for ^3H-TRH concentrations were calculated for the apical and basolateral solutions at each time point.

Caco-2 monolayers [3] = experiment: TEER of Caco-2 monolayers with MCFA sodium salts and 3H-TRH; format: cell-based; conditions: Caco-2 monolayers over 2 hours, sodium salts with 3H-TRH, concentrations of Table 1
Protocol: as §1, §2
After removing the cell culture medium, the monolayers were placed in wells containing prewarmed HBSS (37° C.); 1 ml apically and 2 ml basolaterally. Monolayers were incubated at 37° C. for 30 mins. Then at time zero, apical HBSS was replaced with the relevant apical test solution containing the radiolabelled compounds with and without the enhancer compound. […] The plates were placed on an orbital shaker in an incubator (37° C.). Transport across the monolayers was followed by basolateral sampling (1 ml) at 30 min. intervals up to 120 mins. At each 30 min. interval each insert was transferred to a new well containing 2 ml fresh prewarmed HBSS. Apical stock radioactivity was determined by taking 10 μl samples at t=0 and t=120 mins. […] Mean values for ^3H-TRH concentrations were calculated for the apical and basolateral solutions at each time point.

[4] = test system: plasma anti-factor Xa activity; experiment: Closed-loop rat segment, intraileal USP heparin with enhancer, plasma anti-factor Xa; conditions: USP heparin 1000 iu
Protocol: The procedure carried out in Example 1 (a) above was repeated using USP heparin in place of TRH and dosing intraileally rather than intraduodenally. A mid-line incision was made in the abdomen and the distal end of the ileum located (about 10 cm proximal to the ileo-caecal junction). 7-9 cm of tissue was isolated and the distal end ligated, taking care to avoid damage to surrounding blood vessels. Heparin absorption as indicated by […] (APTT) response was measured by placing a drop of whole blood (freshly sampled from the tail artery) on the test cartridge of Biotrack 512 coagulation monitor. APTT measurements were taken at various time points.
Citrated blood samples were centrifuged at 3000 rpm for 15 mins. to obtain plasma for anti-factor Xa analysis. […] The control in each case is a solution of the same heparin concentration containing no enhancer.

[5] = test system: plasma anti-factor Xa activity; experiment: Dog study of oral heparin/enhancer tablets, anti-factor Xa and clinical assessment; format: in vivo; conditions: dogs, IR formulations, equivalent dose of heparin
Protocol: Tablets from batches 3, 7 and 15 in Tables 5 and 6 above were dosed orally to groups of five dogs in a single dose crossover study. […] Blood samples for anti-factor Xa analysis were collected from the jugular vein at various time points.

[6] = Closed-loop rat segment, intraileal USP heparin with enhancer, APTT response; format: in vivo; conditions: USP heparin 1000 iu, sodium caprate 10 and 35 mg
From the text: APTT measurements were taken at various time points.

[7] = oral conventional forms, cited from earlier work
in vivo = experiment: in vivo
Protocol: Beagle dogs (10-15 Kg) were sedated with medetomidine (80 μg/kg) and an endoscope was inserted via the mouth, esophagus and stomach into the duodenum. The test solutions (10 ml), comprising leuprolide acetate (Mallinckrodt Inc, St. Louis, Mo.) with or without enhancer reconstituted in deionized water were administered intraduodenally via the endoscope. Following removal of the endoscope, sedation was reversed using atipamezole (400 μg/kg). The parenteral reference solutions comprising 1 mg Leuprolide reconstituted in 0.5 ml sterile water were administered intravenously and subcutaneously respectively.

[8] = test system: plasma anti-factor Xa activity; experiment: Intraduodenal LMWH with enhancers in rats (open loop), plasma anti-factor Xa; format: in vivo, rat; conditions: intraduodenal 1000 IU, absence of enhancer

Molecule: CCCCCCCCCC(=O)[O-].[Na+] [Batch C10, sodium caprate]
effect on permeability constant Papp for 3H-TRH compared to the control (Caco-2 monolayers [2]): considerable increases
serum levels of TRH over the control TRH solution [1]: significantly increases
effect on TEER compared to the control (Caco-2 monolayers [3]): minimal reduction in TEER
anti-factor Xa activity relative to control heparin solution ([4]; enhancer 10 mg dose): significant increase
anti-factor Xa activity relative to control heparin solution ([4]; enhancer 35 mg dose): significant increase
anti-factor Xa response, NaC10 relative to NaC8 enhancer [5]: larger anti-factor Xa response
heparin absorption by APTT response vs control heparin solution [6]: significant increase in absorption

Molecule: CCCCCCCCCCCC(=O)[O-].[Na+] [Batch C12, sodium laurate]
effect on permeability constant Papp for 3H-TRH compared to the control (Caco-2 monolayers [2]): considerable increases
effect on TEER compared to the control (Caco-2 monolayers [3]): some cell damage (reduction in TEER)

Molecule: CCCCCCCCCCCCCCCCCC(=O)[O-].[Na+] [Batch C18]
effect on TEER compared to the control (Caco-2 monolayers [3]): minimal reduction in TEER

Molecule: NCCCC(O)(P(=O)(O)O)P(=O)(O)O [alendronate]
further share of the dose absorbed excreted in the urine ([7]; over the next 64 hours): 5%
share of the dose absorbed excreted in the urine ([7]; within 8 hours): 40%

Further lines, with some results ahead:

serum levels of TRH over the control TRH solution [1]: significantly increases
Molecule: CCCCCCCC(=O)[O-].[Na+] [Batch C8, sodium caprylate]

effect on permeability constant Papp for 3H-TRH compared to the control (Caco-2 monolayers [2]): considerable increases
Molecule: CCCCCCCCCCCCCC(=O)[O-].[Na+] [Batch C14]
effect on TEER compared to the control (Caco-2 monolayers [3]): minimal reduction in TEER

bioavailability (in vivo): 8%
systemic delivery of leuprolide (in vivo; dog, in vivo): negligible
Molecule: CCNC(=O)[C@@H]1CCCN1C(=O)[C@H](CCCNC(=N)N)NC(=O)[C@H](CC(C)C)NC(=O)[C@@H](CC(C)C)NC(=O)[C@H](Cc1ccc(O)cc1)NC(=O)[C@H](CO)NC(=O)[C@H](Cc1c[nH]c2ccccc12)NC(=O)[C@H](Cc1c[nH]cn1)NC(=O)[C@@H]1CCC(=O)N1 [leuprolide, leuprolide acetate]

systemic delivery of LMWH [8]: relatively poor
Molecule: parnaparin sodium [LMWH]
